Results from patent US9796733B2, “Imidazo-pyrazine derivatives useful as soluble guanylate cyclase activators” (Merck Sharp & Dohme Corp., priority 2014, dated 2017).

How the values were obtained:
sGC α1/β1 heterodimer = target: T1, sGC α1/β1 heterodimer (Homo sapiens, UniProt Q02108+Q02153); assay: Cell-based sGC functional assay (CASA assay): cGMP generation in CHO-K1/sGC cells, HTRF detection; conditions: for Emax: CHO-K1, percent activation relative to standard Compound A in CHO-K1/sGC cells, read-out: % Act.; for EC50: inflection point (IP) of cGMP generation in CHO-K1/sGC cells, 4P fit, activity expressed as percentage of Compound A
T1 construct: expressed in transfected cells; host or cells: CHO-K1 (clone #7, CHO-K1/sGC)
T1 sequence (Q02108 1-690): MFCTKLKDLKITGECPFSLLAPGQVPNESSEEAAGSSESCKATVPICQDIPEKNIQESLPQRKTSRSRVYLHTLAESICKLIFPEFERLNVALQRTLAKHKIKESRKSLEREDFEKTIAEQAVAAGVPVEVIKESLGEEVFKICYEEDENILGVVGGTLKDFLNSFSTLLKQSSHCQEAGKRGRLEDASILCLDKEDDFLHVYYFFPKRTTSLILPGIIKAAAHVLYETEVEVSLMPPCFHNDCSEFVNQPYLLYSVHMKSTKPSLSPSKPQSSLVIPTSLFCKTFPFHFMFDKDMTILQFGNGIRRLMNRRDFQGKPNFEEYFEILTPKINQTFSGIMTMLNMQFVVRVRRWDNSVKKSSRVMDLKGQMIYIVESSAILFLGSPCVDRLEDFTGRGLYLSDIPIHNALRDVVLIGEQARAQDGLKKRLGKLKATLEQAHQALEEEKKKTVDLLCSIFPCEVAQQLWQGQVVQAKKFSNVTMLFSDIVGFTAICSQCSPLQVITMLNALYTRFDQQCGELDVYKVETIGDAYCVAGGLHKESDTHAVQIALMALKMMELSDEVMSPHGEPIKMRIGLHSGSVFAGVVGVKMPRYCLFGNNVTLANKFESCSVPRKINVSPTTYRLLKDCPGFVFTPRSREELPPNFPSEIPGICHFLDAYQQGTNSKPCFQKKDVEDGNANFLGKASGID
T1 sequence (Q02153 1-619): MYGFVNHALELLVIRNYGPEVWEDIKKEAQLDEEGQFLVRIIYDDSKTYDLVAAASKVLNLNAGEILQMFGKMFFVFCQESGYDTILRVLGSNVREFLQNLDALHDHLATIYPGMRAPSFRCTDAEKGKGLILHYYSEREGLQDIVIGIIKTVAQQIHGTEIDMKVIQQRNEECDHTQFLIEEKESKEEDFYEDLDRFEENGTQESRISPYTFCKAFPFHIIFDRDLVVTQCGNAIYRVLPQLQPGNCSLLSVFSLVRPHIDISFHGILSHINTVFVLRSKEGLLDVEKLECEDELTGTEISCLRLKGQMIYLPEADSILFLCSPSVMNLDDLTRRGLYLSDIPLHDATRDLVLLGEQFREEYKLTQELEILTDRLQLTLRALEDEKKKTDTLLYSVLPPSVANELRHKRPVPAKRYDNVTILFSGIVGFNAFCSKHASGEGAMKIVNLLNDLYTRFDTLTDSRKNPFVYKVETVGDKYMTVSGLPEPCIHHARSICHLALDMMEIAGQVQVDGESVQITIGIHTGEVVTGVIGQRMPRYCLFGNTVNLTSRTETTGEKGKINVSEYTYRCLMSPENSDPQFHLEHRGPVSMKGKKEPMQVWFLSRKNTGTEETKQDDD
How it was run: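 cGMP was quantified by HTRF after 1 hr, 37° C exposure of thawed CHO-K1 cells expressing sGC α1/β1 to compound, with or without 1 μM DETA-NO. IBMX (0.5 mM) blocked cGMP breakdown, and DMSO was 2.5% final. Percent of standard Compound A's maximal cGMP was fitted (4P) for inflection point.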

[1] = tested on: Spontaneously hypertensive rats (SHR); assay: Acute efficacy in spontaneously hypertensive rats (SHR): telemetry blood pressure lowering after a single oral dose; type: in vivo, rat
How it was run: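 Values are the maximum peak fall in systolic pressure after one oral dose (mpk), computed hourly against baseline from a vehicle dose given the day before. Rats were conscious, male, spontaneously hypertensive, with femoral-aortic telemetry recording 30 s every 10 min, 14 days post-surgery.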

Structure (SMILES)	Emax (sGC α1/β1 heterodimer) [%]	EC50 (sGC α1/β1 heterodimer) [nM]	Maximum peak decrease of systolic blood pressure (SBP) in SHR, Cat. ([1]; P.O. 0.3 mpk)	Maximum peak decrease of systolic blood pressure (SBP) in SHR, Cat. ([1]; P.O. 1.0 mpk)	Maximum peak decrease of systolic blood pressure (SBP) in SHR, Cat. ([1]; P.O. 3.0 mpk)	Maximum peak decrease of systolic blood pressure (SBP) in SHR, Cat. ([1]; P.O. 2.0 mpk)
CC1(c2ccc(Cl)cn2)C(=O)Nc2nc(-c3cn4ccnc4c(CCC(F)(F)C(F)(F)F)n3)nc(N)c21 (stereo not drawn) [Example 228A, 4-amino-5-(5-chloropyridin-2-yl)-5-methyl-2-(8-(3,3,4,4,4-pentafluorobutyl)imidazo [1,2-a]pyrazin-6-yl)-5H-pyrrolo[2,3-d]pyrimidin-6(7H)-one]	108	20	B (Category B=SBP in SHRs 20-40 mmHg)	–	–	–
CCOc1ccc(C2(C)C(=O)Nc3nc(-c4cn5ccnc5c(CCCC(F)(F)F)n4)nc(N)c32)nc1 (stereo not drawn) [Example 216A, 4-amino-5-(5-ethoxypyridin-2-yl)-5-methyl-2-(8-(4,4,4-trifluorobutyl)imidazo[1,2-a]pyrazin-6-yl)-5H-pyrrolo[2,3-d]pyrimidin-6(7H)-one]	77	146	–	B (Category B=SBP in SHRs 20-40 mmHg)	–	–
Nc1nc(-c2cn3ccnc3c(CCC(F)(F)C(F)(F)F)n2)nc2c1C(c1cncc(F)c1)(C1CC1)C(=O)N2 (stereo not drawn) [Example 353B, 4-amino-5-cyclopropyl-5-(5-fluoropyridin-3-yl)-2-(8-(3,3,4,4,4-pentafluorobutyl)imidazo[1,2-a]pyrazin-6-yl)-5H-pyrrolo[2,3-d]pyrimidin-6(7H)-one]	168	1030	–	–	A (Category A=SBP in SHRs<20 mmHg)	–
CC1(c2ccccc2)C(=O)Nc2nc(-c3cn4ccnc4c(CCC(F)(F)F)n3)nc(N)c21 (stereo not drawn) [Example 188B, 4-amino-5-methyl-5-phenyl-2-(8-(3,3,3-trifluoropropyl)imidazo[1,2-a]pyrazin-6-yl)-5H-pyrrolo[2,3-d]pyrimidin-6(7H)-one]	154	304	–	–	B (Category B=SBP in SHRs 20-40 mmHg)	–
CC1(c2ccc(F)cn2)C(=O)Nc2nc(-c3cn4ccnc4c(CCC(F)(F)F)n3)nc(N)c21 (stereo not drawn) [Example 202B, 4-amino-5-(5-fluoropyridin-2-yl)-5-methyl-2-(8-(3,3,3-trifluoropropyl)imidazo[1,2-a]pyrazin-6-yl)-5H-pyrrolo[2,3-d]pyrimidin-6(7H)-one]	91	870	–	–	B (Category B=SBP in SHRs 20-40 mmHg)	–
CCCc1nc(-c2nc(N)c3c(n2)NC(=O)C3(C)c2ccc(C(F)(F)F)cn2)cn2ccnc12 (stereo not drawn) [Example 132B, 4-amino-5-methyl-2-(8-propylimidazo[1,2-a]pyrazin-6-yl)-5-(5-(trifluoromethyl)pyridin-2-yl)-5H-pyrrolo[2,3-d]pyrimidin-6(7H)-one]	99	949	–	–	B (Category B=SBP in SHRs 20-40 mmHg)	–
Nc1nc(-c2cn3ccnc3c(CCC(F)(F)C(F)(F)F)n2)nc2c1C(c1ncc(Cl)cn1)(C1CC1)C(=O)N2 (stereo not drawn) [Example 349A, 4-amino-5-(5-chloropyrimidin-2-yl)-5-cyclopropyl-2-(8-(3,3,4,4,4-pentafluorobutyl)imidazo[1,2-a]pyrazin-6-yl)-5H-pyrrolo[2,3-d]pyrimidin-6(7H)-one]	107	213	–	–	–	B (Category B=SBP in SHRs 20-40 mmHg)
CCC1(c2ccc(F)cc2)C(=O)Nc2nc(-c3cn4ccnc4c(CCC(F)(F)C(F)(F)F)n3)nc(N)c21 (stereo not drawn) [Example 239A, 4-amino-5-ethyl-5-(4-fluorophenyl)-2-(8-(3,3,4,4,4-pentafluorobutyl)imidazo [1,2-a]pyrazin-6-yl)-5H-pyrrolo[2,3-d]pyrimidin-6(7H)-one]	97	53	B (Category B=SBP in SHRs 20-40 mmHg)	–	–	–
CC1(c2ccccc2)C(=O)Nc2nc(-c3cn4ccnc4c(Cc4c(F)ccc(F)c4F)n3)nc(N)c21 (stereo not drawn) [Example 100B, 4-amino-5-methyl-5-phenyl-2-(8-(2,3,6-trifluorobenzyl)imidazo[1,2-a]pyrazin-6-yl)-5H-pyrrolo[2,3-d]pyrimidin-6(7H)-one]	96	13	A (Category A=SBP in SHRs<20 mmHg)	–	–	–
CCCCc1nc(-c2nc(N)c3c(n2)NC(=O)C3(C)c2ccc(F)cn2)cn2ccnc12 (stereo not drawn) [Example 16B, 4-amino-2-(8-butylimidazo[1,2-a]pyrazin-6-yl)-5-(5-fluoropyridin-2-yl)-5-methyl-5H-pyrrolo[2,3-d]pyrimidin-6(7H)-one]	117	134	C (Category C=SBP in SHRs>40 mmHg)	–	–	–
Nc1nc(-c2cn3ccnc3c(CCCC(F)(F)F)n2)nc2c1C(c1ccc(OC(F)(F)F)cc1)(C1CC1)C(=O)N2 (stereo not drawn) [Example 347A, 4-amino-5-cyclopropyl-2-(8-(4,4,4-trifluorobutyl)imidazo[1,2-a]pyrazin-6-yl)-5-(4-(trifluoromethoxy)phenyl)-5H-pyrrolo[2,3-d]pyrimidin-6(7H)-one]	107	131	–	B (Category B=SBP in SHRs 20-40 mmHg)	–	–
Nc1nc(-c2cn3ccnc3c(CCC(F)(F)F)n2)nc2c1C(c1ccc(F)c(F)c1)(C1CC1)C(=O)N2 (stereo not drawn) [Example 318A, 4-amino-5-cyclopropyl-5-(3,4-difluorophenyl)-2-(8-(3,3,3-trifluoropropyl)imidazo[1,2-a]pyrazin-6-yl)-5H-pyrrolo[2,3-d]pyrimidin-6(7H)-one]	127	2180	–	–	–	A (Category A=SBP in SHRs<20 mmHg)
CC1(c2ccc(F)cn2)C(=O)Nc2nc(-c3cn4ccnc4c(CCC(F)(F)C(F)(F)F)n3)nc(N)c21 (stereo not drawn) [Example 246B, 4-amino-5-(5-fluoropyridin-2-yl)-5-methyl-2-(8-(3,3,4,4,4-pentafluorobutyl)imidazo [1,2-a]pyrazin-6-yl)-5H-pyrrolo[2,3-d]pyrimidin-6(7H)-one]	114	128	–	B (Category B=SBP in SHRs 20-40 mmHg)	–	–
Nc1nc(-c2cn3ccnc3cn2)nc2c1C(c1ccc(Cl)c(F)c1)(C1CC1)C(=O)N2 (stereo not drawn) [Example 137B, 4-amino-5-(4-chloro-3-fluorophenyl)-5-cyclopropyl-2-(imidazo[1,2-a]pyrazin-6-yl)-5H-pyrrolo[2,3-d]pyrimidin-6(7H)-one]	108	135	–	B (Category B=SBP in SHRs 20-40 mmHg)	–	–
CC1(c2ccc(F)cc2)C(=O)Nc2nc(-c3cn4ccnc4cn3)nc(N)c21 (stereo not drawn) [Example 134A, 4-amino-5-(4-fluorophenyl)-2-(imidazo[1,2-a]pyrazin-6-yl)-5-methyl-5H-pyrrolo[2,3-d]pyrimidin-6(7H)one]	118	627	–	–	B (Category B=SBP in SHRs 20-40 mmHg)	–
CC1(c2ccc(F)cc2)C(=O)Nc2nc(-c3cn4ccnc4c(CCCC(F)(F)F)n3)nc(N)c21 (stereo not drawn) [Example 211A, 4-amino-5-(4-fluorophenyl)-5-methyl-2-(8-(4,4,4-trifluorobutyl)imidazo[1,2-a]pyrazin-6-yl)-5H-pyrrolo[2,3-d]pyrimidin-6(7H)-one]	122	75	A (Category A=SBP in SHRs<20 mmHg)	–	–	–
